Data as given in patent publication US20050238619A1, “Method for the delivery of sustained release agents” (priority 2004, published 2005).

Assays:
[1] = Fluorescein retention in RF ablated bovine liver, washed in PBS and photographed under UV light; assay type: in vitro ADME; conditions: ablated bovine liver bivalved, agitated in 1 L PBS exchanged daily; photographed under UV light; FIG. 1
Excerpt: Bovine liver was ablated, injected multiple times with fluorescein. […] The PBS was exchanged daily for two weeks. At weekly intervals, the ablated tissue was photographed under ultraviolet (UV) light. […] This approach can be used to help train and assess people to use the technique.

[2] = Fluorescein retention by RF ablated bovine liver versus number of injections (fluorimeter); assay type: in vitro ADME; conditions: total volume 0.5 mL, tissue washed over 10 minutes, FIG. 2
Method: Ablated bovine liver, prepared as in Example 1, was injected 3, 10, or 30 times with fluorescein (total volume of 0.5 mL). The tissue was extensively washed over 10 minutes; and the retained fluorescein was calculated as a percentage of the total injected fluorescein. To quantify the retained fluorescein, the washed tissue was homogenized, centrifuged and the supernatant assessed for fluorescein using a fluorimeter with excitation and emission filters of 485 nm and 525 nm, respectively.

[3] = Release of fluorescein from RF ablated bovine liver tissue; assay type: in vitro ADME; conditions: FIG. 3
Excerpt: To determine the rate of fluorescein release, bovine liver was ablated with RF and injected with fluorescein. […] However, after one week of continued washing, the ablated tissue still contained greater than 50% of the original fluorescein.

[4] = Fluorescein retention in RF ablated subcutaneous Ras-6 tumors in vivo; set-up: species or system Balb/c female mice; conditions: Ras-6 flank tumors, RFA, 50 μl fluorescein in 1 to 3 injections; FIG. 4
Method: Balb/c female mice were injected with 10^6 Ras-6 tumor cells in the flank. The Ras-6 tumor was derived by transfection of a p53-null BALB/c murine embryo fibroblast line with a mutant ras gene. Once the tumors reached 0.5-1 cm in size, the animals were placed under general anesthesia; and the tumors was ablated using a 0.7 cm multi-tined probe. RFA was accomplished by starting with 1-3 watts of power and increasing the power every 30 seconds. A special resistor circuit was placed in the circuit to avoid a low resistance default interrupt error built into the RFA generator. Following RFA, the tumors were injected with a total volume of 50 μl of fluorescein using 1 to 3 injections. At various intervals, the animals were sacrificed and the retained fluorescein assessed. FIG. 4 depicts the residual fluorescein after 1, 3, and 8 days. Consistent with the ex vivo studies, the amount of fluorescein decreases over this time interval; however, substantial fluorescein remains in the ablated tumor for ar least 8 days in vivo.

[5] = Fluorescein retention in RF ablated hepatic tumors in clinical studies, estimated from serial urine samples; assay type: in vivo, patients; conditions: patient 1, after 12 days; 1 ml of 10% fluorescein (100 mg), 20 injections; estimated 2 L urine/day; FIG. 6
Method: Six patients with unresectable hepatic metastases or hapatocellular carcinoma were enrolled in the Internal Review Board approved protocol following the process of informed consent. Eligibility required that the patient receive RFA for therapeutic intent. RFA was performed using a RadioTherapeutics® device according to their specifications. Subsequently, 1 ml of 10% fluorescein was injected into the ablated tissue (20 different injections).
Because 98% of fluorescein is excreted in the urine, the amount of released and retained fluorescein could be estimated from serial urine sample. Serially, first morning void urine samples were collected and assessed for fluorescein. The retained fluorescein was calculated by subtracting the estimated excreted fluorescein (measured fluorescein (mg/mL)×estimated 2 L urine/day volume) from the total injected fluorescein (100 mg).

[6] = general statement used as the basis of the calculation; cited from earlier work

O=C1OC2(c3ccc(O)cc3Oc3cc(O)ccc32)c2ccccc21 [fluorescein]
time fluorescein was detected within the ablated tissue [1]: at least two weeks
retained fluorescein as a percentage of the total injected fluorescein ([2]; 3 injections): 41%
retained fluorescein as a percentage of the total injected fluorescein ([2]; 10 injections): 49%
retained fluorescein as a percentage of the total injected fluorescein ([2]; 30 injections): about 65%
course of released fluorescein ([3]; RF ablated bovine liver, continued washing): exponential decline
fluorescein still contained in the ablated tissue, of the original fluorescein ([3]; after one week of continued washing): greater than 50%
time substantial fluorescein remains in the ablated tumor in vivo [4]: ≥ 8 days
calculated fluorescein retained in the ablated tumor [5]: greater than 90%
fluorescein excreted in the urine [6]: 98%
